From patent US20210346321A1, “PHARMACEUTICAL COMPOSITION CONTAINING ALKYL CARBAMOYL NAPHTHALENYLOXY OCTENOYL HYDROXYAMIDE PHOSPHATE, TARTRATE OR COMBINATION THEREOF, AND PREPARATION METHOD THEREFOR” (CRYSTALGENOMICS, INC., priority 2018, published 2021)
Entries after “also recorded” stand apart in the source; their conditions may differ.

Tests used:
Type in all cases: physicochemical
[1] = Evaluation of change in appearance on storage; details: for change in appearance: open state storage, all conditions
Description: (§1) In order to evaluate the stability of the compound according to the present invention, an alkylcarbamoyl naphthalenyloxy octenoyl hydroxyamide compound was used in Comparative Example 1, an alkyl carbamoyl naphthalenyloxy octenoyl hydroxyamide tartrate was used in Example 13 and alkylcarbamoyl naphthalenyloxy octenoyl hydroxyamide phosphate was used in Example 14. As alkylcarbamoyl naphthalenyloxy octenoyl hydroxyamide, (E)-N1-(3-(dimethylamino)propyl)-N8-hydroxy-2-((naphthalen-1-yloxy)methyl)-2-octenediamide compound was used. Evaluation of stability was conducted by observing the change with storage time under room temperature (20-25° C., 50% or less), long-term (25±2° C. and 60±5% RH), accelerated (40±2° C. and 75±5% RH) and severe (60±2° C.) conditions.
In order to evaluate the change in appearance of the compounds according to Comparative Examples and Examples, each compound was stored in an open state according to the conditions shown in Table 13 below, and then the change in appearance was observed.

[2] = Evaluation of change in moisture content (Karl Fischer); details: open state, room temperature (20 to 25° C., 50% or less), after 3 days versus initial
Description: as §1
In order to evaluate the change in moisture content, the compounds according to Examples and Comparative Examples were stored in an open state at room temperature (20 to 25° C., 50% or less), and the change was measured by the difference between the initial moisture content and the moisture content after 3 days, and the results are shown in FIG. 4. Moisture content was measured according to the volumetric titration method among methods of determining the water content (Karl Fischer method) of the general test methods of the Korean Pharmacopoeia (measurement equipment: 701KF_Metrohm).

[3] = Comparison of the amount of change in related substances of the compounds; details: for increase in the amount of related substances: open state at room temperature for 3 days
Experimental: In order to evaluate the amount of change in the related substances of Example 12, the composition of Example 12 was placed in an accelerated condition chamber ([…], 75%±5), and the amount of related substance produced was measured for 6 months. For the measurement of the amount of related substances produced, the composition of Example 12 was pretreated and then tested according to the liquid chromatography method of the general test method of the Korean Pharmacopoeia to determine peak areas of the produced related substances (individual related substance 0.2% or less, total related substances 1.0%, measuring equipment: HPLC LC-2030C_Shimadzu). In Table 12, the amount of related substances produced is expressed in %. In addition, FIG. 3 is a result of measuring the related substance at 28 minutes under the accelerated condition, and the reference value is 0.2%.
In order to evaluate the amount of change in related substances of the compounds according to Comparative Examples and Examples, each compound was stored in an open state at room temperature for 3 days, and then the amount of related substances produced was measured in the same manner as in Experimental Example 3 and the results are shown in FIG. 5.
In addition, changes in the amount of related substances produced according to temperature and storage period are shown in FIGS. 6 and 7 for the compounds according to Examples 13 and 14.

[4] = Evaluation of change in content on storage (HPLC)
Description: as §1
In order to evaluate the change in the content of the compounds according to Examples, each compound was stored in an open state or in a polyethylene bottle packaging (silica gel added) to measure the change in content. For measurement of content, compounds of Comparative Examples and Examples were pretreated and then the solutions were tested according to the liquid chromatography method of the general test methods of the Korean Pharmacopoeia to determine the peak area of CG200745 (measurement equipment: HPLC LC-2030C_Shimadzu). The content standard is to contain CG200745 in an amount corresponding to 95.0-105.5% of the indicated amount according to the standards and test methods of the present applicant.
The results measured in the open state are shown in Table 14 below, and the results measured in the bottle packaging are shown in Table 15 below.

[5] = open state, 1 day, Accelerated (40±2° C., 75±5% RH)
[6] = open state, 1 day, Long-term (25±2° C., 60±5% RH)
[7] = bottle packaging, 1 day, Accelerated
[8] = bottle packaging, 1 day, Long-term
[9] = bottle packaging, 1 day, Room temperature
[10] = bottle packaging, 1 day, Severe
[11] = bottle packaging, 3 days, Accelerated
[12] = bottle packaging, 3 days, Long-term
[13] = bottle packaging, 3 days, Room temperature
[14] = bottle packaging, 7 days, Accelerated
[15] = bottle packaging, 7 days, Long-term
[16] = bottle packaging, 7 days, Room temperature
[17] = polyethylene bottle packaging (silica gel added), Initial
[18] = open state, 7 days, Room temperature (20-25° C., 50% or less)

What does the source list for `CN(C)CCCNC(=O)/C(=C/CCCCC(=O)NO)COc1cccc2ccccc12` [Comparative Example 1, (E)-N1-(3-(dimethylamino)propyl)-N8-hydroxy-2-((naphthalen-1-yloxy)methyl)-2-octenediamide, reference compound]?
appearance ([1]; Initial, listed as Comp. Ex. 1): Foam; change in appearance [1]: changed from a foam to a highly viscous liquid or gel; appearance [1, 5]: Gel-like; appearance [1, 6]: Gel-like; appearance ([1]; open state, 1 day, Room temperature (20-25° C., 50% or less), listed as Comp. Ex. 1): Gel-like; appearance ([1]; open state, 1 day, Severe (60±2° C.), listed as Comp. Ex. 1): Gel-like; increase in moisture content [2]: about 3%; increase in the amount of related substances [3]: about 10%; content of CG200745 [4, 7]: 89.1%; content of CG200745 [4, 8]: 99.1%; content of CG200745 [4, 9]: 99.3%; content of CG200745 [4, 10]: 101.2%; content of CG200745 [4, 11]: 84.0%; content of CG200745 [4, 12]: 84.0%; content of CG200745 [4, 13]: 99.5%; content of CG200745 [4, 14]: 78.5%; content of CG200745 [4, 15]: 78.5%; content of CG200745 [4, 16]: 99.4%; content of CG200745 ([4]; open state, 1 day, Accelerated, listed as Comp. Ex. 1): 92.3%; content of CG200745 ([4]; open state, 1 day, Long-term, listed as Comp. Ex. 1): 99.9%; content of CG200745 ([4]; open state, 1 day, Room temperature, listed as Comp. Ex. 1): 101.0%; content of CG200745 ([4]; open state, 1 day, Severe, listed as Comp. Ex. 1): 101.1%; content of CG200745 ([4]; open state, 3 days, Room temperature, listed as Comp. Ex. 1): 101.9%; content of CG200745 ([4]; open state, 3 days, Severe, listed as Comp. Ex. 1): 97.2%; content of CG200745 ([4]; open state, 7 days, Room temperature, listed as Comp. Ex. 1): 100.1%; content of CG200745 ([4]; open state, 7 days, Severe, listed as Comp. Ex. 1): 89.1%; content of CG200745 ([4]; open state, Initial, listed as Comp. Ex. 1): 98.9%; content of CG200745 [4, 17]: 98.9%

With `CN(C)CCCNC(=O)/C(=C/CCCCC(=O)NO)COc1cccc2ccccc12` [Example 13, (E)-N1-(3-(dimethylamino)propyl)-N8-hydroxy-2-((naphthalen-1-yloxy)methyl)-2-octenediamide] as the compound, how does the appearance ([1]; Initial, listed as Ex. 13) read?
Its appearance is “Powder”.

And the appearance [1, 5]?
The appearance was “Gel-like”.

What about the appearance [1, 6] of the same compound?
The appearance was “Gel-like”.

And the appearance ([1]; open state, 1 day, Room temperature (20-25° C., 50% or less), listed as Ex. 13)?
Its appearance is “Powder”.

What about the appearance ([1]; open state, 1 day, Severe (60±2° C.), listed as Ex. 13) of the same compound?
Its appearance is “Powder”.

And the appearance [1, 18]?
Its appearance is “Powder”.

And the appearance ([1]; open state, 7 days, Severe (60±2° C.), listed as Ex. 13)?
Its appearance is “Powder; also recorded: Discoloration”.

And the “increase in moisture content” value [2]?
The value was 2%.

What about the “amount of related substances produced according to storage temperature” value ([3]; FIG. 6) of the same compound?
Its value is “maintained within a certain range at a relatively low temperature”.

And the “increase in the amount of related substances” value [3]?
Its value is 0.05%.

And the “content of CG200745” value ([4]; open state, 1 day, Accelerated, listed as Ex. 13)?
The value was 104.6%.

What about the “content of CG200745” value ([4]; open state, 1 day, Long-term, listed as Ex. 13) of the same compound?
Its value is 104.3%.

What about the “content of CG200745” value ([4]; open state, 1 day, Room temperature, listed as Ex. 13) of the same compound?
The value was 103.4%.

What about the “content of CG200745” value ([4]; open state, 1 day, Severe, listed as Ex. 13) of the same compound?
Its value is 103.3%.

What about the “content of CG200745” value ([4]; open state, 3 days, Accelerated) of the same compound?
The value was 102.3%.

What about the “content of CG200745” value ([4]; open state, 3 days, Long-term) of the same compound?
Its value is 102.6%.

And the “content of CG200745” value ([4]; open state, 3 days, Room temperature, listed as Ex. 13)?
Its value is 102.6%.

And the “content of CG200745” value ([4]; open state, 3 days, Severe, listed as Ex. 13)?
The value was 99.6%.

And the “content of CG200745” value ([4]; open state, 7 days, Accelerated)?
Its value is 100.7%.

What about the “content of CG200745” value ([4]; open state, 7 days, Long-term) of the same compound?
Its value is 99.4%.

What about the “content of CG200745” value ([4]; open state, 7 days, Room temperature, listed as Ex. 13) of the same compound?
The value was 100.0%.

What about the “content of CG200745” value ([4]; open state, 7 days, Severe, listed as Ex. 13) of the same compound?
Its value is 102.2%.

And the “content of CG200745” value ([4]; open state, Initial, listed as Ex. 13)?
The value was 99.5%.

And the “content on storage” value ([4]; under the room temperature condition)?
The value was “maintained at a certain level”.

Which appearance ([1]; Initial) does the source give for `CN(C)CCCNC(=O)/C(=C/CCCCC(=O)NO)COc1cccc2ccccc12.O=P(O)(O)O` [Example 14, (E)-N1-(3-(dimethylamino)propyl)-N8-hydroxy-2-((naphthalen-1-yloxy)methyl)-2-octenediamide phosphate] here?
The appearance was “Powder”.

What about the “change in appearance” value [1] of the same compound?
The value was “remained constant regardless of the condition”.

And the appearance [1, 5]?
The appearance was “Powder”.

And the appearance [1, 6]?
Its appearance is “Powder”.

And the appearance ([1]; open state, 1 day, Room temperature (20-25° C., 50% or less))?
Its appearance is “Powder”.

What about the appearance ([1]; open state, 1 day, Severe (60±2° C.)) of the same compound?
The appearance was “Powder”.

And the appearance ([1]; open state, 7 days, Accelerated (40±2° C., 75±5% RH))?
The appearance was “Powder”.

And the appearance ([1]; open state, 7 days, Long-term (25±2° C., 60±5% RH))?
The appearance was “Powder”.

And the appearance [1, 18]?
Its appearance is “Powder”.

And the appearance ([1]; open state, 7 days, Severe (60±2° C.))?
Its appearance is “Powder”.

What about the “increase in moisture content” value [2] of the same compound?
Its value is “about 0.01%”.

What about the “increase in the amount of related substances” value [3] of the same compound?
Its value is 0.02%.

And the “amount of related substances produced” value ([3]; regardless of the storage temperature and period (FIG. 7))?
Its value is “about 0.22%”.

What about the “content on storage” value ([4]; all packaging conditions, heating, humidity) of the same compound?
Its value is “kept constant regardless of packaging conditions, heating, and humidity”.

And the “content of CG200745” value [4, 7]?
Its value is 101.2%.

What about the “content of CG200745” value [4, 8] of the same compound?
Its value is 103.5%.

What about the “content of CG200745” value [4, 9] of the same compound?
Its value is 98.6%.

What about the “content of CG200745” value [4, 10] of the same compound?
The value was 101.6%.

What about the “content of CG200745” value [4, 11] of the same compound?
The value was 100.1%.

What about the “content of CG200745” value [4, 12] of the same compound?
The value was 99.9%.

And the “content of CG200745” value [4, 13]?
Its value is 98.8%.

And the “content of CG200745” value ([4]; bottle packaging, 3 days, Severe)?
The value was 100.4%.

What about the “content of CG200745” value [4, 14] of the same compound?
Its value is 101.1%.

And the “content of CG200745” value [4, 15]?
The value was 100.9%.

What about the “content of CG200745” value [4, 16] of the same compound?
The value was 99.3%.

And the “content of CG200745” value ([4]; bottle packaging, 7 days, Severe)?
Its value is 101.4%.

What about the “content of CG200745” value [4, 17] of the same compound?
Its value is 99.5%.
